Data from publication PMC7305236, “The atypical chemokine receptor ACKR3/CXCR7 is a broad-spectrum scavenger for opioid peptides” (Nature Communications, 2020).
pEC50: −log10 of the molar value. Read-outs that look alike come from different tables or passages of the source.

Experiments:
U87 ACKR3 = biological target: T1, U87 ACKR3 (Homo sapiens, UniProt P25106); assay: Figure 6c source data, U87 ACKR3; format: cell-based; details: Figure 6c inset, U87 ACKR3 + labelled peptide, titrated agonist not given
T1 construct: expressed in transfected cells
T1 sequence (P25106 whole entry): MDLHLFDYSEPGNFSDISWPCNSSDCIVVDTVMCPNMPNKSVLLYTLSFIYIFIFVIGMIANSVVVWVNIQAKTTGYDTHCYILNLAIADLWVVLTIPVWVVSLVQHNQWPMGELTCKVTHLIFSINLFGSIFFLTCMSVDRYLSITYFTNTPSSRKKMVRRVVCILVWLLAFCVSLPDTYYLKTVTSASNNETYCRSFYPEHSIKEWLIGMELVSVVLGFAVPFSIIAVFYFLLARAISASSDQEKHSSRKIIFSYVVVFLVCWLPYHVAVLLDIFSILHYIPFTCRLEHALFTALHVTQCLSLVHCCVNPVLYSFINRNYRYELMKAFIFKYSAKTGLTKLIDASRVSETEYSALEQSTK

ACKR3 [1] = biological target: T2, ACKR3 (Homo sapiens, UniProt P25106); format: cell-based; set-up: expressed in transfected cells; details: 100 nM
T2 sequence (P25106 whole entry): as above

ACKR = biological target: T3, ACKR (Homo sapiens, UniProt P25106); assay: Figure 6h, ACKR, DMSO vs Bafilomycin treatment; format: cell-based; details: n = 3 or 4 as in cell
T3 construct: expressed in transfected cells; host or cells: U87 cells (human glioblastoma)
T3 sequence (P25106 whole entry): as above

KOR [2] = biological target: T4, KOR (Homo sapiens, UniProt P41145); assay: Figure 6h, KOR, DMSO vs Bafilomycin treatment; format: cell-based; set-up: expressed in transfected cells; host or cells: U87 (human glioblastoma); details: n = 3 or 4 as in cell
T4 sequence (P41145 whole entry): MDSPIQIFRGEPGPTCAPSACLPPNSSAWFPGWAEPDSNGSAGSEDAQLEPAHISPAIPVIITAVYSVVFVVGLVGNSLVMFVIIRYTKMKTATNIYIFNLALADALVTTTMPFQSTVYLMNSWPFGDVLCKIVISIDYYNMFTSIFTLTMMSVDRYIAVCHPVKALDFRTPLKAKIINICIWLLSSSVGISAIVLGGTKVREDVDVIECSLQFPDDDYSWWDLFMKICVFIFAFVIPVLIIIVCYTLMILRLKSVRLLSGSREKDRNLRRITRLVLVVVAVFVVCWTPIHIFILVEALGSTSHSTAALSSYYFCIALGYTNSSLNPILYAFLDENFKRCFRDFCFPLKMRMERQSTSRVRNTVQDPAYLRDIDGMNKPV

NOP = NOP (Homo sapiens, UniProt P41146); assay: Activity of ligands towards NOP (source data Fig 4a, 4c); format: cell-based; details: 100 nM
Chain of NOP (P41146 whole entry): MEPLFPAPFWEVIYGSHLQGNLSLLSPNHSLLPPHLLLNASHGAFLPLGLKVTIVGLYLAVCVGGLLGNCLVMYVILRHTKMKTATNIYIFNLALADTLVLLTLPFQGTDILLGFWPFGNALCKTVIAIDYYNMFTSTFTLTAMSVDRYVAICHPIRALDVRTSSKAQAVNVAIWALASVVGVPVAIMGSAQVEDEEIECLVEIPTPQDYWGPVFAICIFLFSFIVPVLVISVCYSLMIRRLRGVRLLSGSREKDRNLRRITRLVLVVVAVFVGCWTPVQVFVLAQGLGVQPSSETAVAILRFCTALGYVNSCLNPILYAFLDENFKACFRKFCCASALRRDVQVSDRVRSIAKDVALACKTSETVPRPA

DOR = biological target: T5, DOR (Homo sapiens, UniProt P41143); format: cell-based; details: 100 nM
T5 construct: expressed in transfected cells; host or cells: U87 (human glioblastoma)
T5 sequence (P41143 whole entry): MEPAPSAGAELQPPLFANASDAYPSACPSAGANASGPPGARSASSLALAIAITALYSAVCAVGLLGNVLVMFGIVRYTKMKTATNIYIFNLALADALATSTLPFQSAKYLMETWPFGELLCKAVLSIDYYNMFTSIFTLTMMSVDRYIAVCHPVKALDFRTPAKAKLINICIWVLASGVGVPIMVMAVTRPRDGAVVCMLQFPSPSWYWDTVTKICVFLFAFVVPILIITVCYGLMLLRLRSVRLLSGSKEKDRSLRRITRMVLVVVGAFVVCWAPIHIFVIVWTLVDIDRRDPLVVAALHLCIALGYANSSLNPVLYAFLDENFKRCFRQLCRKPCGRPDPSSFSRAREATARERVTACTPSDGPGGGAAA

KOR [3] = biological target: T4, KOR; format: cell-based; set-up: expressed in transfected cells; host or cells: U87 (human glioblastoma), transient co-transfection; details: 100 nM
CXCR4 = biological target: T6, CXCR4 (Homo sapiens, UniProt P61073); format: cell-based
T6 construct: expressed in transfected cells; host or cells: U87, transient cotransfection of pNBe vectors
T6 sequence (P61073 whole entry): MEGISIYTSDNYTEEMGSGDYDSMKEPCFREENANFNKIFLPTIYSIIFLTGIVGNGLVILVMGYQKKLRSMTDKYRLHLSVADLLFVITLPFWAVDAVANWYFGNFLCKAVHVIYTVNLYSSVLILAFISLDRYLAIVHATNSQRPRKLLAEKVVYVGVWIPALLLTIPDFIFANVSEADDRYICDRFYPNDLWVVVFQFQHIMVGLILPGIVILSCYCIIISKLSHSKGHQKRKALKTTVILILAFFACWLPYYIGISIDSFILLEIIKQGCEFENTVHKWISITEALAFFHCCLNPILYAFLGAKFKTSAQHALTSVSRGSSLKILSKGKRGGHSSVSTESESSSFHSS

CXCR7 = biological target: T7, CXCR7 (Homo sapiens, UniProt P25106); assay: Figure S1a: screen of opioid peptides on CXCR7; format: cell-based
T7 construct: expressed in transfected cells; host or cells: U87 cells
T7 sequence (P25106 whole entry): as the sequence (P25106 whole entry) above

CCR1 = biological target: T8, CCR1 (Homo sapiens, UniProt P32246); assay: Figure S2a opioid peptide screen on chemokine receptors; format: cell-based; set-up: dose or concentration left out as unconfirmed; details: replicate 1, read-out: CCR1 activity, ctrl+ = 100
T8 construct: expressed in transfected cells
T8 sequence (P32246 1-355): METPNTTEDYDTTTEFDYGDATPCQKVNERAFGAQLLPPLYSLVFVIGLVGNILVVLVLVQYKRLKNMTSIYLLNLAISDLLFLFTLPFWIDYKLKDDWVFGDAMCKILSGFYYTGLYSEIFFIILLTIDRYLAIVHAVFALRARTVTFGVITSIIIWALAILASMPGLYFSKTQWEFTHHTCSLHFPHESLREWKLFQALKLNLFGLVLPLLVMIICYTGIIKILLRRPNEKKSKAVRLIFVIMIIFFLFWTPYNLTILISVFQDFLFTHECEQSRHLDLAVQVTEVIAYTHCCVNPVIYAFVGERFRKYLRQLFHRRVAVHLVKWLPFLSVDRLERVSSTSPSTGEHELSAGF

CCR6 = biological target: T9, CCR6 (Homo sapiens, UniProt P51684); assay: as above; format: cell-based; set-up: dose or concentration left out as unconfirmed; details: replicate 1, read-out: CCR6 activity, ctrl+ = 100
T9 construct: expressed in transfected cells
T9 sequence (P51684 1-374): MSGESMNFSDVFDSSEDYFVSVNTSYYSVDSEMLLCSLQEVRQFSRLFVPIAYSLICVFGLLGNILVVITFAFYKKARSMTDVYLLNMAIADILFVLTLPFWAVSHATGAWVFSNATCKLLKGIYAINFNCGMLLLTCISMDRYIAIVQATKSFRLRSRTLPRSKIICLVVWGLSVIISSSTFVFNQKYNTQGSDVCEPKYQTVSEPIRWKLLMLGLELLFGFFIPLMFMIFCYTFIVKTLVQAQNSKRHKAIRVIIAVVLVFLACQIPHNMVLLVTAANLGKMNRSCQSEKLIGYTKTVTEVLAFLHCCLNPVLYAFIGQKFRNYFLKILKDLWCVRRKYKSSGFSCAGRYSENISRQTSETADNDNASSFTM

CXCR3A = biological target: T10, CXCR3A (Homo sapiens, UniProt P49682); assay: as above; format: cell-based; set-up: dose or concentration left out as unconfirmed; details: replicate 1, read-out: CXCR3A activity, ctrl+ = 100
T10 construct: expressed in transfected cells; host or cells: U87 cells
T10 sequence (P49682 1-368): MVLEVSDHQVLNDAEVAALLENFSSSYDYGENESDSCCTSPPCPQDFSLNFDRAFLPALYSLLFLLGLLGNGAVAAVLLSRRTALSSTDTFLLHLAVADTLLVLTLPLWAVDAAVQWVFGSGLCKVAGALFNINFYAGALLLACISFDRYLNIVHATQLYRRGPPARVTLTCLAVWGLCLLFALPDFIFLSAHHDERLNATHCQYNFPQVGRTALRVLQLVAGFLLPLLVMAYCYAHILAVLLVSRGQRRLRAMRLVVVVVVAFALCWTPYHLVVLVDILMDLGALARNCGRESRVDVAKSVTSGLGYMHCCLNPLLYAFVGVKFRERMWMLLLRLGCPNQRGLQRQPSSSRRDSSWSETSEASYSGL

ACKR2 = biological target: T11, ACKR2 (Homo sapiens, UniProt O00590); assay: as above; format: cell-based; set-up: dose or concentration left out as unconfirmed; details: replicate 2, read-out: ACKR2 activity, ctrl+ = 100
T11 construct: expressed in transfected cells; host or cells: U87 cells (human glioblastoma)
T11 sequence (O00590 1-384): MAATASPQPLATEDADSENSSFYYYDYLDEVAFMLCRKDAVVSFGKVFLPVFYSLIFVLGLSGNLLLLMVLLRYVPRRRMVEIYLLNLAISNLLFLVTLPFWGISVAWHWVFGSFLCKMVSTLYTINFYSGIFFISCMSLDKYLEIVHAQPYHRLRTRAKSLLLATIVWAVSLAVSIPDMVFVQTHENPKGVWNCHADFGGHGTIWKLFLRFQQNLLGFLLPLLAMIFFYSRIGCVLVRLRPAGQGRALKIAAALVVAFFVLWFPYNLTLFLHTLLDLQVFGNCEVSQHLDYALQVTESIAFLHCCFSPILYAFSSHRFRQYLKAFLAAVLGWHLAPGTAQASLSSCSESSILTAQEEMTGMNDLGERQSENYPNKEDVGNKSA

ACKR3 [4] = biological target: T2, ACKR3; assay: cell-based; set-up: dose or concentration left out as unconfirmed; details: read-out: ACKR3 activity, ctrl+ = 100, Figure S2a; replicate 2
CCR3 = biological target: T12, CCR3 (Homo sapiens, UniProt P51677); assay: Figure S2a opioid peptide screen on chemokine receptors; set-up: dose or concentration left out as unconfirmed; details: read-out: CCR3 activity, ctrl+ = 100, Figure S2a
T12 sequence (P51677 1-355): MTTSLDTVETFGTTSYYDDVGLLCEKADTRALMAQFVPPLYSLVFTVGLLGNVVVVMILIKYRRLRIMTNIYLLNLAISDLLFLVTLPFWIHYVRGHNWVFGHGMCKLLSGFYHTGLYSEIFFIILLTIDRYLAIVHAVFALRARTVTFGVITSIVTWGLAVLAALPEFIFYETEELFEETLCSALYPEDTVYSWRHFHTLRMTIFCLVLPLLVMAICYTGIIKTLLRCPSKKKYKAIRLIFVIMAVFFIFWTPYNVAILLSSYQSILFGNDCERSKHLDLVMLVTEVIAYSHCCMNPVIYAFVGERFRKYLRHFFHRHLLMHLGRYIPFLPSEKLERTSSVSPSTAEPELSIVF

[5] = 'DMSO vs Bafilomycin treatment'
[6] = first of two columns under 'DMSO vs Bafilomycin treatment' (presumably DMSO)

H-MRRKFGGF-NH2 [LIH inverse]
pEC50 (U87 ACKR3; replicate 1): 7.19 | pEC50 (U87 ACKR3; replicate 2): 6.93 | pEC50 (U87 ACKR3; replicate 3): 6.95 | pEC50 (U87 ACKR3; replicate 4): 7.14

Buprenorphine
ACKR3 activity, Fig 4a (ACKR3 [1]; replicate 1): -5.792 | ACKR3 activity, Fig 4a (ACKR3 [1]; replicate 2): 26.4917 | ACKR3 activity, Fig 4a (ACKR3 [1]; replicate 3): -14.8896

C=CCN1CC[C@]23c4c5ccc(O)c4O[C@H]2C(=O)CC[C@@]3(O)[C@H]1C5 [Naloxone]
ACKR3 activity, Fig 4a (ACKR3 [1]; replicate 1): -16.5596 | ACKR3 activity, Fig 4a (ACKR3 [1]; replicate 2): -16.7812 | ACKR3 activity, Fig 4a (ACKR3 [1]; replicate 3): -9.5257

CSCC[C@H](NC(=O)[C@H](Cc1ccccc1)NC(=O)CNC(=O)CNC(=O)[C@@H](N)Cc1ccccc1)C(=O)N[C@@H](CCCNC(=N)N)C(=O)N[C@@H](CCCNC(=N)N)C(=O)N[C@@H](CCCCN)C(N)=O [LIH383]
Mean ± SEM (Figure 6h, ACKR) (ACKR; [5]): 25,99 ± 1,65, n=3 | Mean ± SEM (Figure 6h, ACKR) (ACKR; [6]): 41,87 ± 2,846, n=3 | Mean ± SEM (Figure 6h, KOR) (KOR [2]; [5]): 102,6 ± 3,011, n=3 | Mean ± SEM (Figure 6h, KOR) (KOR [2]; [6]): 99,75 ± 4,761, n=3

Oc1ccc2c3c1O[C@H]1c4[nH]c5c(c4C[C@@]4(O)[C@@H](C2)N(CC2CC2)CC[C@]314)C[C@@]1(O)[C@H]2Cc3ccc(O)c4c3[C@@]1(CCN2CC1CC1)[C@H]5O4 [nor-Binaltrophimine]
NOP activity, Fig 4a (NOP; replicate 1): 13.2975 | NOP activity, Fig 4a (NOP; replicate 2): 23.1448 | NOP activity, Fig 4a (NOP; replicate 3): -11.7109 | ACKR3 activity, Fig 4a (ACKR3 [1]; replicate 1): 6.23 | ACKR3 activity, Fig 4a (ACKR3 [1]; replicate 2): 7.454 | ACKR3 activity, Fig 4a (ACKR3 [1]; replicate 3): 1.2819

C=CCN1CC[C@]23CCCC[C@H]2[C@H]1Cc1ccc(O)cc13 [Levallorphan]
DOR activity, Fig 4a (DOR; replicate 1): -48.6722 | DOR activity, Fig 4a (DOR; replicate 2): -49.4812 | DOR activity, Fig 4a (DOR; replicate 3): -45.6651 | NOP activity, Fig 4a (NOP; replicate 1): 19.6254 | NOP activity, Fig 4a (NOP; replicate 2): -2.413 | NOP activity, Fig 4a (NOP; replicate 3): -13.909 | ACKR3 activity, Fig 4a (ACKR3 [1]; replicate 1): 29.7947 | ACKR3 activity, Fig 4a (ACKR3 [1]; replicate 2): -20.4867 | ACKR3 activity, Fig 4a (ACKR3 [1]; replicate 3): -0.5025 | KOR activity, Fig 4a (KOR [3]; replicate 1): -79.0502 | KOR activity, Fig 4a (KOR [3]; replicate 2): -66.9071 | KOR activity, Fig 4a (KOR [3]; replicate 3): -81.2861

Oc1ccc2c3c1O[C@H]1c4[nH]c5ccccc5c4C[C@@]4(O)[C@@H](C2)N(CC2CC2)CC[C@]314 [Naltrindole]
ACKR3 activity, Fig 4a (ACKR3 [1]; replicate 1): 7.799 | ACKR3 activity, Fig 4a (ACKR3 [1]; replicate 2): 7.647 | ACKR3 activity, Fig 4a (ACKR3 [1]; replicate 3): 1.281

c1cc(CN2CCCNCCNCCCNCC2)ccc1CN1CCCNCCNCCCNCC1 [AMD3100]
Figure S1a value, CXCR4 (CXCR4; replicate 1): -2.401 | Figure S1a value, CXCR4 (CXCR4; replicate 2): 38.4908

CXCL11
Figure S1a value, CXCR7 (CXCR7; replicate 1): 84.3234 | Figure S1a value, CXCR7 (CXCR7; replicate 2): 115.296 | Figure S1a value, CXCR4 (CXCR4; replicate 1): 49.1082 | Figure S1a value, CXCR4 (CXCR4; replicate 2): 78.3882

CC[C@H](C)[C@H](NC(=O)[C@H](C)NC(=O)[C@H](CC(N)=O)NC(=O)[C@H](CCCCN)NC(=O)[C@H](Cc1ccccc1)NC(=O)[C@H](CC(C)C)NC(=O)[C@@H](NC(=O)[C@@H](NC(=O)[C@H](CC(C)C)NC(=O)[C@@H]1CCCN1C(=O)[C@@H](NC(=O)[C@H](CCC(N)=O)NC(=O)[C@H](CO)NC(=O)[C@H](CCCCN)NC(=O)[C@H](CCC(=O)O)NC(=O)[C@H](CO)NC(=O)[C@@H](NC(=O)[C@H](CCSC)NC(=O)[C@H](Cc1ccccc1)NC(=O)CNC(=O)CNC(=O)[C@@H](N)Cc1ccc(O)cc1)[C@@H](C)O)[C@@H](C)O)C(C)C)[C@@H](C)O)C(=O)N[C@H](C(=O)N[C@@H](CCCCN)C(=O)N[C@@H](CC(N)=O)C(=O)N[C@@H](C)C(=O)N[C@@H](Cc1ccc(O)cc1)C(=O)N[C@@H](CCCCN)C(=O)N[C@@H](CCCCN)C(=O)NCC(=O)N[C@@H](CCC(=O)O)C(=O)O)[C@@H](C)CC [-endorphin]
activation (CCR1): 6.2% | activation (CCR6): 1.21% | activation (CXCR3A): 2.35% | activation (ACKR2): 16.8% | activation (ACKR3 [4]): 3.39% | activation (CCR3; replicate 1): 5.63% | activation (CCR3; replicate 2): 8.01%
